The record followed here is PMC5797802, “The A2B Adenosine Receptor Modulates the Epithelial– Mesenchymal Transition through the Balance of cAMP/PKA and MAPK/ERK Pathway Activation in Human Epithelial Lung Cells” (Frontiers in Pharmacology, 2018).

The target in assay [1] is T1, A2B adenosine receptor (A2BAR) (Homo sapiens, UniProt P29275).
T1 construct: gene ADORA2B
T1 sequence (P29275 1-332): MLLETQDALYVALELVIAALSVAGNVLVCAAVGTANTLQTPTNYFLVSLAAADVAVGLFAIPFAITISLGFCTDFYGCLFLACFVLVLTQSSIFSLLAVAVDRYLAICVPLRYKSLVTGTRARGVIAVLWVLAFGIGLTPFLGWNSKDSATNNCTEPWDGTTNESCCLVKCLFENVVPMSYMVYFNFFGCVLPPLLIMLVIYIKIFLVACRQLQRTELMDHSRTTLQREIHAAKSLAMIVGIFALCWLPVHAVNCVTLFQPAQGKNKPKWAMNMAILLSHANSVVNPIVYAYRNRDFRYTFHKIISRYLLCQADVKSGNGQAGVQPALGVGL
Put plainly: agonist-induced cAMP production (AlphaLISA) in A549 cells with endogenous receptor; effect reversed by MRS […]. It is filed as cell-based.

Assay [2] deals with T1, A2B adenosine receptor (A2BAR). The experiment in a line: reversal at […] of BAY […]-6583-induced cAMP and ERK1/[…] phosphorylation in A549 cells. It is filed as cell-based.

In general, EC50 refers to the concentration needed to bring the measured effect to its halfway point. A low value points to a more potent agent. The compound `N#Cc1c(N)nc(SCC(N)=O)c(C#N)c1-c1ccc(OCC2CC2)cc1` [BAY 60-6583, 2-[6-amino-3,5-dicyano-4-[4-(cyclopropylmethoxy)phenyl]pyridin-2-ylsulfanyl] acetamide] displayed an EC50 in assay [1] of 17.2 ± 2.5 nM.
Consider `CCCn1c(=O)c2[nH]c(-c3ccc(OCC(=O)Nc4ccc(C(C)=O)cc4)cc3)nc2n(CCC)c1=O` [MRS1706, N-(4-acetylphenyl)-2-[4-(2,3,6,7-tetrahydro-2,6-dioxo-1,3-dipropyl-1H-purin-8-yl)phenoxy]-acetamide], for which the “reversal at 1 μM of BAY 60-6583-induced cAMP and ERK1/2 phosphorylation in A549” value in assay [2] is on record as “The effects evoked by A2BAR stimulation were almost completely reversed by the A2BAR inverse agonist MRS1706”.
